According to article PMC6384781, “Design, Synthesis, Docking Studies and Monoamine Oxidase Inhibition of a Small Library of 1-acetyl- and 1-thiocarbamoyl-3,5-diphenyl-4,5-dihydro-(1H)-pyrazoles” (Molecules, 2019):

What was measured:
[1] = target: T1, hMAO-A (Homo sapiens, UniProt P21397); assay: hMAO-A inhibition, Amplex Red fluorometric assay with kynuramine substrate; assay type: biochemical; details: for IC50 / IC50 hMAO-A: recombinant hMAO-A, kynuramine 50 µM, mean ± SD of triplicate, max tested 100 µM; for fold difference of hMAO-A inhibition, (R)-enantiomer versus (S)-enantiomer: (R)- compared with (S)-enantiomer of the same compound
T1 construct: purchased Sigma-Aldrich; host or cells: insect cells (microsomes)
T1 sequence (P21397 1-527): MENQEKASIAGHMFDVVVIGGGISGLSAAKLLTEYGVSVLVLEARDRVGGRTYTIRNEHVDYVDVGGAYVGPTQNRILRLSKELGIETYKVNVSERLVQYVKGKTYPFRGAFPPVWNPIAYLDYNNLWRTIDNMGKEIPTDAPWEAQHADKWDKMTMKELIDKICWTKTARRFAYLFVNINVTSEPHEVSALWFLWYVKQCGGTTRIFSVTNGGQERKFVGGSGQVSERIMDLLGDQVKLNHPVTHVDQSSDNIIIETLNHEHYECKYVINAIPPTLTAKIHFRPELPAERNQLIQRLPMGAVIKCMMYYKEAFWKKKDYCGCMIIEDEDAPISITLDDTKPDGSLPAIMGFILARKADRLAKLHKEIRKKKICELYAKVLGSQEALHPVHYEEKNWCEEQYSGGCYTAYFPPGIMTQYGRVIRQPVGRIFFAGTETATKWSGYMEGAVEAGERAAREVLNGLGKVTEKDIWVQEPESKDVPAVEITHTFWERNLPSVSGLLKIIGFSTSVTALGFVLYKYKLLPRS
Description: (§1) The synthesized compounds P1–P18 were evaluated as hMAO inhibitors using the recombinant hMAOs as enzyme sources and kynuramine as substrate. A fluorometric method based on the Amplex® Red reagent (λex = 560 nm; λem = 590 nm) was used to measure hMAO activity. In this horseradish peroxidase-linked assay, Amplex® Red reacts with hydrogen peroxide that is produced by the MAO catalytic cycle to yield a fluorescent product, resorufin [28]. By thus recording the MAO-catalyzed formation of hydrogen peroxide in the presence of different concentrations of a test inhibitor, sigmoidal plots of enzyme activity versus the logarithm of inhibitor concentration were constructed from which IC50 values were estimated (GraphPad Prism 5). All IC50 values were measured in triplicate and are expressed as the mean ± standard deviation (SD). The inhibitory activities of compounds P1–P18 are summarized in Table 1 along with selectivity index (SI) values which are the ratio of IC50(hMAO-A)/IC50(hMAO-B). SI < 1 indicates selectivity for MAO-A, whereas SI > 1 indicates selectivity for the MAO-B isoform.
(§2) Microsomes from insect cells expressing recombinant hMAO-A or hMAO-B (5 mg protein/mL) served as enzyme sources, and were pre-aliquoted and stored at −70 °C. All enzymatic reactions were carried out to a final volume of 200 µL in black 96-well microtiter plates (Corning). Potassium phosphate buffer (100 mM, pH 7.4, made isotonic with KCl) served as reaction solvent. The reactions contained kynuramine (50 µM), various concentrations of the test inhibitor (0.003–100 μM), horseradish peroxidase (1 unit/mL) and Amplex® Red (200 µM). Stock solutions of the test inhibitors were prepared in DMSO and added to the reactions to yield a final concentration of 4% (v/v) DMSO. The reactions were initiated with the addition of hMAO-A (0.0075 mg protein/mL) or hMAO-B (0.015 mg protein/mL), and incubated at 37 °C for 20 min in a convection oven. At endpoint, the reactions were terminated with the addition of 10 μL pargyline (20 mM) and 10 μL (R)-deprenyl (5 mM) for hMAO-A and hMAO-B, respectively. The concentrations of resorufin in the reactions were determined by fluorescence spectrophotometry (λex = 560 nm, λem = 590 nm). Resorufin was quantitated with a linear calibration curve, which was constructed from standard solutions containing hydrogen peroxide (0.05–1.6 µM). Each standard was prepared to a final volume of 200 μL in potassium phosphate buffer and also contained horseradish peroxidase (1 unit/mL), Amplex® Red (200 µM), 4% DMSO as co-solvent, 10 μL pargyline (20 mM) for hMAO-A and 10 μL (R)-deprenyl (5 mM) for hMAO-B. The IC50 values were determined by constructing sigmoidal curves of MAO catalytic activity versus the logarithm of inhibitor concentration. For this purpose, the one site competition model incorporated into the Prism 5 software package (GraphPad, San Diego, CA, USA) was used. All experiments were carried out in triplicate and the IC50 values are expressed as mean ± standard deviation (SD).

[2] = target: T2, hMAO-B (Homo sapiens, UniProt P27338); assay: hMAO-B inhibition, Amplex Red fluorometric assay with kynuramine substrate; assay type: biochemical; details: for SI (selectivity index for the hMAO-B isoform): ratio IC50(hMAO-A)/IC50(hMAO-B), SI > 1 = MAO-B selective; for IC50 / IC50 hMAO-B: recombinant hMAO-B, kynuramine 50 µM, mean ± SD of triplicate, max tested 100 µM
T2 construct: purchased Sigma-Aldrich; host or cells: insect cells (microsomes)
T2 sequence (P27338 1-520): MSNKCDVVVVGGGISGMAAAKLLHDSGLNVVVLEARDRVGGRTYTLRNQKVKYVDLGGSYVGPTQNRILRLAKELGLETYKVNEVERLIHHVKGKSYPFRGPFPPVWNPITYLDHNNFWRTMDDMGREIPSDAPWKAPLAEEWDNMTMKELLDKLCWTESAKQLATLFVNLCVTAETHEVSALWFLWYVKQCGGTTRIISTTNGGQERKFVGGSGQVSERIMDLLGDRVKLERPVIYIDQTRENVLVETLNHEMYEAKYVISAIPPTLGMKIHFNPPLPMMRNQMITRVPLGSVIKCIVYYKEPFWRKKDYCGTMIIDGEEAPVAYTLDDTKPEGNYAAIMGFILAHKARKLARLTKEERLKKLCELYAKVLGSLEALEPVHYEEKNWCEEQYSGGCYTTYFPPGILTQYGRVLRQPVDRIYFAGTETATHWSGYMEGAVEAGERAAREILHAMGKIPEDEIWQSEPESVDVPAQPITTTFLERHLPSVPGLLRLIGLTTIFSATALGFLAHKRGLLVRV
Description: as §1, §2

Compound	IC50 [1]	SI (selectivity index for the hMAO-B isoform) [2]	IC50 [2]	fold difference of hMAO-A inhibition, (R)-enantiomer versus (S)-enantiomer [1]	fold higher hMAO-B inhibitory activity, (R)-enantiomer versus (S)-enantiomer ([2]; (R)- compared with (S)-enantiomer of the same compound)	IC50 hMAO-A [1]	melting point	fold higher inhibitory activity for hMAO-A than for hMAO-B ([1]; hMAO-A versus hMAO-B)	IC50 hMAO-B [2]
CC(=O)N1N=C(c2ccc(OCC=C(C)C)cc2)CC1c1ccccc1 (stereo not drawn) [Compound P8]	> 100 µM	>43.67	2.29 ± 0.42 µM	–	–	–	–	–	–
CC(=O)N1N=C(c2ccc(OCC=C(C)C)cc2)CC1c1ccccc1C (stereo not drawn) [Compound P9, 1-(3-(4-((3-methylbut-2-en-1-yl)oxy)phenyl)-5-(o-tolyl)-4,5-dihydro-1H-pyrazol-1-yl)ethan-1-one]	9.13 ± 0.34 µM	0.33	27.3 ± 0.57 µM	–	–	–	110 to 112 °C	3 fold	–
CC(=O)N1N=C(c2ccc(OCC=C(C)C)cc2)CC1c1cccc(C)c1 (stereo not drawn) [Compound P10, 1-(3-(4-((3-methylbut-2-en-1-yl)oxy)phenyl)-5-(m-tolyl)-4,5-dihydro-1H-pyrazol-1-yl)ethan-1-one]	86.8 ± 14.7 µM	26.96	3.22 ± 0.48 µM	–	–	–	120 to 122 °C	–	–
CC(=O)N1N=C(c2ccc(OCC=C(C)C)cc2)CC1c1ccc(C)cc1 (stereo not drawn) [Compound P11, 1-(3-(4-((3-methylbut-2-en-1-yl)oxy)phenyl)-5-(p-tolyl)-4,5-dihydro-1H-pyrazol-1-yl)ethan-1-one]	> 100 µM	>8.19	12.2 ± 0.71 µM	–	–	–	–	–	–
CC(=O)N1N=C(c2ccc(OCC=C(C)C)cc2)CC1c1ccc(C)cc1C (stereo not drawn) [Compound P12, 1-(5-(2,4-dimethylphenyl)-3-(4-((3-methylbut-2-en-1-yl)oxy)phenyl)-4,5-dihydro-1H-pyrazol-1-yl)ethan-1-one]	80.6 ± 10 µM	<0.81	> 100 µM	–	–	–	117 to 119 °C	–	–
CC(=O)N1N=C(c2ccc(OCC=C(C)C)cc2)CC1c1ccccc1Cl (stereo not drawn) [Compound P13, 1-(5-(2-chlorophenyl)-3-(4-((3-methylbut-2-en-1-yl)oxy)phenyl)-4,5-dihydro-1H-pyrazol-1-yl)ethan-1-one]	5.74 ± 1.66 µM	1.85	3.11 ± 0.66 µM	–	–	–	131 to 134 °C	–	–
CC(=O)N1N=C(c2ccc(OCC=C(C)C)cc2)CC1c1cccc(Cl)c1 (stereo not drawn) [Compound P14, 1-(5-(3-chlorophenyl)-3-(4-((3-methylbut-2-en-1-yl)oxy)phenyl)-4,5-dihydro-1H-pyrazol-1-yl)ethan-1-one]	4.13 ± 0.26 µM	3.82	1.08 ± 0.05 µM	–	–	–	85 to 88 °C	–	–
CC(=O)N1N=C(c2ccc(OCC=C(C)C)cc2)CC1c1ccc(Cl)cc1 (stereo not drawn) [Compound P15, 1-(5-(4-chlorophenyl)-3-(4-((3-methylbut-2-en-1-yl)oxy)phenyl)-4,5-dihydro-1H-pyrazol-1-yl)ethan-1-one]	12.1 ± 0.14 µM	1.11	11 ± 3.56 µM	–	–	–	–	–	–
CC(=O)N1N=C(c2ccc(OCC=C(C)C)cc2)CC1c1ccc(Cl)cc1Cl (stereo not drawn) [Compound P16, 1-(5-(2,4-dichlorophenyl)-3-(4-((3-methylbut-2-en-1-yl)oxy)phenyl)-4,5-dihydro-1H-pyrazol-1-yl)ethan-1-one]	> 100 µM	–	> 100 µM	–	–	did not inhibit	128 to 130 °C	–	did not inhibit
CC(=O)N1N=C(c2ccc(OCC=C(C)C)cc2)CC1c1ccc(-c2ccccc2)cc1 (stereo not drawn) [Compound P17]	> 100 µM	–	> 100 µM	–	–	devoid of inhibition activity	132 to 135 °C	–	devoid of inhibition activity

Other lines, results leading:

IC50 [1]	SI (selectivity index for the hMAO-B isoform) [2]	IC50 [2]	fold difference of hMAO-A inhibition, (R)-enantiomer versus (S)-enantiomer [1]	fold higher hMAO-B inhibitory activity, (R)-enantiomer versus (S)-enantiomer ([2]; (R)- compared with (S)-enantiomer of the same compound)	IC50 hMAO-A [1]	melting point	fold higher inhibitory activity for hMAO-A than for hMAO-B ([1]; hMAO-A versus hMAO-B)	IC50 hMAO-B [2]	Compound
50.6 ± 2.67 µM	<0.51	> 100 µM	–	–	–	–	–	–	COc1ccc(C2=NN(C(N)=S)[C@@H](c3ccccc3)C2)cc1 [(R)-P1]
33.9 ± 1.29 µM	<0.34	> 100 µM	–	–	–	–	–	–	CCOc1ccc(C2=NN(C(N)=S)[C@@H](c3ccccc3)C2)cc1 [(R)-P2]
8 ± 0.83 µM	2.89	2.77 ± 0.39 µM	–	–	–	–	–	–	CCCOc1ccc(C2=NN(C(N)=S)[C@@H](c3ccccc3)C2)cc1 [(R)-P3]
3.63 ± 0.5 µM	9.55	0.38 ± 0.06 µM	10 fold	–	–	–	–	–	CCCCOc1ccc(C2=NN(C(N)=S)[C@@H](c3ccccc3)C2)cc1 [(R)-P4]
3.03 ± 0.6 µM	6.89	0.44 ± 0.028 µM	18 fold	6 fold	–	–	–	–	CCCCCOc1ccc(C2=NN(C(N)=S)[C@@H](c3ccccc3)C2)cc1 [(R)-P5]
46.6 ± 2.62 µM	<0.47	> 100 µM	–	–	–	–	–	–	COc1ccc(C2=NN(C(N)=S)[C@H](c3ccccc3)C2)cc1 [(S)-P1]
32.3 ± 4.46 µM	<0.32	> 100 µM	–	–	–	–	–	–	CCOc1ccc(C2=NN(C(N)=S)[C@H](c3ccccc3)C2)cc1 [(S)-P2]
9.59 ± 0.83 µM	0.23	42.5 ± 2.61 µM	–	–	–	–	–	–	CCCOc1ccc(C2=NN(C(N)=S)[C@H](c3ccccc3)C2)cc1 [(S)-P3]
39.2 ± 2.15 µM	7.78	5.03 ± 0.88 µM	–	–	–	–	–	–	CCCCOc1ccc(C2=NN(C(N)=S)[C@H](c3ccccc3)C2)cc1 [(S)-P4]
55.2 ± 2.72 µM	19.77	2.79 ± 0.87 µM	–	–	–	–	–	–	CCCCCOc1ccc(C2=NN(C(N)=S)[C@H](c3ccccc3)C2)cc1 [(S)-P5]
> 100 µM	>1.85	54.1 ± 7.54 µM	–	–	ineffective	–	–	–	CC(C)=CCCC(C)=CCOc1ccc(C2=NN(C(N)=S)C(c3ccccc3)C2)cc1 (stereo not drawn) [Compound P6, 3-(4-((3,7-dimethylocta-2,6-dien-1-yl)oxy)phenyl)-5-phenyl-4,5-dihydro-1H-pyrazole-1-carbothioamide]
39.3 ± 5.94 µM	2.72	14.5 ± 2.78 µM	–	–	–	95 to 98 °C	–	–	C=CCOc1ccc(C2=NN(C(C)=O)C(c3ccccc3)C2)cc1 (stereo not drawn) [Compound P7, 1-(3-(4-(allyloxy)phenyl)-5-phenyl-4,5-dihydro-1H-pyrazol-1-yl)ethan-1-one]
